In publication PMC8350020, “Stepwise binding of inhibitors to human cytochrome P450 17A1 and rapid kinetics of inhibition of androgen biosynthesis” (The Journal of Biological Chemistry, 2021):
Where two headings read alike, the source gives them in different places.

Legend:
human P450 17A1 [1] = conditions: read-out: IC50, progesterone 17α-hydroxylation, cited from earlier work
human P450 17A1 [2] = conditions: cited from earlier work; for IC50: read-out: IC50, 17α-OH pregnenolone to DHEA (lyase)
human P450 17A1 [3] = target: T1, human P450 17A1 (Homo sapiens, UniProt P05093); test: IC50 determination, progesterone 17α-hydroxylation (17α-OH progesterone formation), reconstituted P450 17A1/POR/b5; assay type: biochemical; conditions: for IC50: IC50 (95% CI limits), progesterone 17α-hydroxylation, steady-state, 0.02 μM P450 17A1, 5 μM progesterone, 37 °C; for Ki: IC50 = Ki [1 + (S/Km)] for competitive inhibition, Km from Ref. 37, read-out: Predicted Ki, progesterone 17α-hydroxylation
T1 sequence (P05093 24-508 limits assumed): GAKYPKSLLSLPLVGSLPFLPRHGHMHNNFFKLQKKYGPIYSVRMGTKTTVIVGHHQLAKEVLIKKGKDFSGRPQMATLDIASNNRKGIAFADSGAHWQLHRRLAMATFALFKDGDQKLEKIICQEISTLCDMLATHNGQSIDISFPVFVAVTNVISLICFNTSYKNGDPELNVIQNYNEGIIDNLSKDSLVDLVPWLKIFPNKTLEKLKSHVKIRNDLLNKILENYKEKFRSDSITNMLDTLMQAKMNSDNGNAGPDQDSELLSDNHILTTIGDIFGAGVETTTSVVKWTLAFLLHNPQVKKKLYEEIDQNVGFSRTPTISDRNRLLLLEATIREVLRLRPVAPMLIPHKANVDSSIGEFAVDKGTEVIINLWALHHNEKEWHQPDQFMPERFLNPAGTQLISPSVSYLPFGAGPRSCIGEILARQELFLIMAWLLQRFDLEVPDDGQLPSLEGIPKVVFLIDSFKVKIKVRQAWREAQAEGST
Procedure: (§1) A 0.5 ml reaction was prepared in most cases by the reconstitution of P450 17A1 (0.02 μM), POR (0.5 μM), and b5 (0.5 μM) with freshly sonicated L-α-dilauroyl-sn-glycero-3-phosphocholine (30 μM). The mixture incubated on ice for 10 min, followed by the addition of potassium phosphate buffer (to a final concentration of 50 mM), substrate (5 μM progesterone or 1.5 μM 17α-OH pregnenolone ([37])), and water. Stock progesterone was prepared in CH3OH and was diluted to a final concentration of 5 μM (0.5% CH3OH, v/v). […] Reactions (in duplicate) were preincubated for 5 min at 37 °C with shaking before being initiated with an NADPH-generating system composed of 0.5 mM NADP^+, two units of yeast glucose 6-phosphate dehydrogenase ml^−1, and 10 mM glucose 6-phosphate ([56]). The inhibitor abiraterone was added immediately prior to the 5-min preincubation stage because of the rapid onset of inhibition. Reactions (5 min) were quenched by immersion in an ice bath, with the addition of CH2Cl2 (2.0 ml), and were centrifuged (10^3g, 10 min) to separate layers. The organic (bottom) phases were removed (1.6 ml) and transferred into clean vials, and the solvent was removed under a stream of nitrogen. Reactions were resuspended in a CH3CN/sodium acetate mixture (25 mM, pH 3.7) (1:1, v/v) and were transferred to vials for UPLC analysis. […] Substrate and product were detected using a Waters Acuity photodiode array system at 240 nm. Data were processed using the MassLynx software, and percent conversion of substrate to product was calculated. The data were normalized to the uninhibited reaction, which was set at 100% activity.

human P450 17A1 [4] = target: T1, human P450 17A1; test: IC50 determination, 17α-OH pregnenolone lyase activity (DHEA formation), reconstituted P450 17A1/POR/b5; assay type: biochemical; conditions: for Ki: IC50 = Ki [1 + (S/Km)] for competitive inhibition, Km from Ref. 37, read-out: Predicted Ki, 17α-OH pregnenolone lyase; for Ratio (17-hydroxylation/lyase) of IC50: This work
Procedure: In the case of catalytic assays, the products of each reaction were redissolved in a solution of CF3CO2H (7 mM, prepared as a 0.1% v/v solution in C2H5OH) and dansyl hydrazine (10 mM, prepared in CH3OH) in amber glass vials (sealed and capped) and were allowed to react overnight (16 h) in the dark at room temperature (23 °C). The reaction was quenched with acetone (50 mM) followed by incubation at room temperature for 30 min. NaOH was added to 100 mM, and the products of the reactions were extracted into CH2Cl2 (1.0 ml), of which 0.8 ml of the organic (lower) layers was transferred to fresh amber vials and dried under a stream of nitrogen. The residues were redissolved in a mixture of a 0.1% HCO2H solution (aqueous) and CH3CN (0.1 ml; 1:1 dilution, v/v) and transferred to ultra performance LC (UPLC) vials for analysis. […] Data were processed using MassLynx software (Waters) (Fig. S5).
as §1
Experimental conditions for the lyase reaction were identical to the hydroxylation reaction with the following exceptions: 17α-OH pregnenolone (1.5 μM) was used as the substrate, and following extraction, the product of the reaction was derivatized with dansyl hydrazine as described previously.

human P450 17A1 [5] = target: T1, human P450 17A1; test: Rates of onset of inhibition, pre-steady-state rapid chemical quench; assay type: biochemical
Procedure: In the control experiment, ES is not inhibited (no I present). […] Both progesterone 17α-hydroxylation (Fig. 10) and 17α-OH pregnenolone lyase activity (Fig. 11) were measured without and with all five inhibitors.
Reactions were performed using a KinTek RQF-3 rapid quench apparatus (KinTek) with the reaction loop set at position 7 and the temperature at 37 °C. The RQF-3 is a rapid mixing device that initiates a reaction by forcing equal volumes of two mixing syringes into a reaction loop. After pausing for the indicated incubation time, the reaction is then quenched and expelled from the apparatus. The reaction mixture (containing enzyme and substrate [in CH3OH, 1% (v/v)]) was initiated with an equal volume (19 μl) of NADPH solution (2 mM), effectively halving the initial concentration of all reaction components. When appropriate, inhibitor (in CH3OH) was added to the NADPH solution (in CH3OH), taking care to keep the total CH3OH composition of the final reaction to 1% (v/v). The substrates progesterone (5 μM) and 17α-OH pregnenolone (1.5 μM) were allowed to react for different lengths of time (0.1–5 and 2–60 s, respectively) prior to quenching with 160 μl of 1 M HCl. Five replicates of each time point were collected into vials to increase the detection sensitivity of the respective product at the shorter time points.

human P450 17A1 [6] = target: T2, human P450 17A1 (Homo sapiens, UniProt P05093); test: Inhibition as a function of preincubation time with abiraterone, CYP17A1R Bactosomes; assay type: biochemical; conditions: 50 nM abiraterone, 10 nM P450 17A1 Bactosomes
T2 sequence (P05093 1-508): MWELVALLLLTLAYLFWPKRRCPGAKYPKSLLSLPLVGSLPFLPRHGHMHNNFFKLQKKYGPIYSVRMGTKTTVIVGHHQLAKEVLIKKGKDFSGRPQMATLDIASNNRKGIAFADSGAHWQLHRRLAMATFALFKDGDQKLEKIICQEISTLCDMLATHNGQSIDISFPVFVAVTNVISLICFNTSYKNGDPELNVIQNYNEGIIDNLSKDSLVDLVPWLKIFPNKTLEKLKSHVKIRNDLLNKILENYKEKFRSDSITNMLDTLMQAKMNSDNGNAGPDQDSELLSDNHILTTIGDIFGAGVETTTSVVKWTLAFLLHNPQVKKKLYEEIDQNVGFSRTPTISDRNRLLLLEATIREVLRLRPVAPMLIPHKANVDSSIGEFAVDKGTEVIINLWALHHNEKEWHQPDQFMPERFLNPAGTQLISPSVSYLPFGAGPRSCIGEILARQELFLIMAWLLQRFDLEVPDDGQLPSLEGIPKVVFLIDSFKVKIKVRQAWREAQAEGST
Procedure: These experiments utilized bacterial membranes (CYP17A1R Bactosomes) as the source of P450 and POR. Experiments were done with 10 nM P450 17A1 in reaction volumes of 0.5 ml, with 100 nM b5 added. Abiraterone was added to 50 nM, and then, the reactions were initiated by the addition of an NADPH-generating system supplemented with either 20 μM progesterone (A) or 17α-OH pregnenolone (B) at the indicated times and proceeded for 5 min (at 37 and 23 °C, respectively).
Steady-state kinetic inhibition assays performed with Cypex CYP17A1R Bactosomes followed largely the same procedure with the following exception: the enzymatic system was prepared by preincubating (23 °C) P450 17A1 (CYP17A1R Bactosomes; 10 nM P450), b5 (100 nM), and potassium phosphate buffer (50 mM, pH 7.4) with abiraterone (50 nM) for varying lengths of time (0.25–30 min). Reactions (5 min) were then initiated with the NADPH-generating system described previously and subjected to the same procedure.

human P450 17A1 [7] = target: T1, human P450 17A1; test: KinTek Explorer modeling of kinetics of inhibition of progesterone 17α-hydroxylation; assay type: biochemical; conditions: fit of Figure 10E data; E 2 μM, S 5 μM progesterone, I 1 μM; read-out: Kd as a competitive inhibitor (value giving adequate model fits)
Procedure: The results of the progesterone 17α-hydroxylation abiraterone inhibition experiment in Figure 10E were analyzed further using KinTek Explorer software (KinTek; Fig. 13).
The lines were fit to the model shown, with the indicated rate and dissociation constants. The enzyme concentration (E) was 2 μM, substrate concentration (S) was 5 μM, and inhibitor concentration (I, abiraterone) was 1 μM. Fitting was done with KinTek Explorer.

human P450 17A1 [8] = target: T1, human P450 17A1
P450 17A1 = conditions: cited from earlier work
human P450 17A1 [9] = target: T1, human P450 17A1; conditions: 250 nM P450 17A1 and 250 nM inhibitor, 23 °C
[10] = IC50 (95% CI limits), 17α-OH pregnenolone lyase, steady-state, 0.02 μM P450 17A1, 1.5 μM 17α-OH pregnenolone, 37 °C
[11] = range of other studies, ref Other studies (2) Petrunak et al. 2017

Row | IC50 (human P450 17A1 [3]) | Ki (human P450 17A1 [3]) | IC50 (human P450 17A1 [4]; [10]) | Ki (human P450 17A1 [4]) | Ratio (17-hydroxylation/lyase) of IC50 (human P450 17A1 [4]) | SMILES | IC50 (human P450 17A1 [1]; ref (2) Petrunak et al. 2017) | Ratio (17-hydroxylation/lyase) of IC50 (human P450 17A1 [2]; ref (2) Petrunak et al. 2017) | IC50 (human P450 17A1 [2]; ref (2) Petrunak et al. 2017) | other results
1 |  |  |  |  |  | CC(C)[C@@](O)(c1ccc2cc(OC(F)F)c(OC(F)F)cc2c1)c1cn[nH]n1 [(R)-Seviteronel] | 11300 nM | 2.3 | 5000 nM | 
2 | 3.2 nM | 1.3 nM | 4.2 nM | 3.4 nM | 0.76 | C[C@]12CC[C@H](O)CC1=CC[C@@H]1[C@@H]2CC[C@]2(C)C(c3cccnc3)=CC[C@@H]12 [Abiraterone, 17-(3-pyridyl)androsta-5,16-dien-3β-ol] | 76 nM | 2.1 | 36 nM | Time within which inhibition occurred (human P450 17A1 [5]; Figs. 10, 11 and 13): less than 1 s; Earliest time points at which inhibition was noted (human P450 17A1 [5]; progesterone 17α-hydroxylation, 1 μM abiraterone, 2 μM P450): ≤ 100 ms; Inhibition of 17α-OH pregnenolone lyase versus preincubation time (human P450 17A1 [6]; 100 nM b5, 20 μM 17α-OH pregnenolone, 23 °C): almost completely inhibited after 15 s; Inhibition of progesterone 17α-hydroxylation versus preincubation time (human P450 17A1 [6]; 100 nM b5, 20 μM progesterone, 37 °C): almost completely inhibited after 15 s; Kd (human P450 17A1 [7]): 1 nM; Further spectral changes after formation of final complex (human P450 17A1 [8]; 2 μM P450 17A1 and 2 μM abiraterone, spectra 1 to 57 min after mixing): no further spectral changes were observed over a period of 1 h; Ratio (17-hydroxylation/lyase) of IC50 (human P450 17A1 [2]; [11]): 0.1-1.4; IC50 (human P450 17A1 [2]; [11]): 2.9 to 800 nM; koff (P450 17A1): 0.000155 s⁻¹; t1/2 (from koff) (P450 17A1): 5 h
3 | 60 nM | 23 nM | 99 nM | 81 nM | 0.61 | Clc1ccccc1C(c1ccccc1)(c1ccccc1)n1ccnc1 [Clotrimazole] |  |  |  | Time required for completion of spectral changes on binding (human P450 17A1 [8]; 2 μM P450 17A1 mixed with inhibitor, 23 °C): ~30 s; Lag in recovery of 17α-OH pregnenolone lyase from 1:1 inhibitor complex (human P450 17A1 [9]; 20 μM 17α-OH pregnenolone): Any suggestion of lags is no greater than in the uninhibited reactions; Lag in recovery of progesterone 17α-hydroxylation from 1:1 inhibitor complex (human P450 17A1 [9]; 20 μM progesterone): Any suggestion of lags is no greater than in the uninhibited reactions; IC50 (human P450 17A1 [1]; ref (5) Munkboel et al. 2019): 180 nM; Ratio (17-hydroxylation/lyase) of IC50 (human P450 17A1 [2]; ref (5) Munkboel et al. 2019): 3.3; IC50 (human P450 17A1 [2]; ref (5) Munkboel et al. 2019): 56 nM
4 |  |  |  |  |  | C[C@]12CC[C@H](O)CC1=CC[C@@H]1[C@@H]2CC[C@]2(C)C(n3cnc4ccccc43)=CC[C@@H]12 [Galaterone] | 130 nM | 1.3 | 100 nM | 
5 | 3500 nM | 1370 nM | 3430 nM | 2810 nM | 1.0 | CC(C)[C@](O)(c1ccc2cc(OC(F)F)c(OC(F)F)cc2c1)c1c[nH]nn1 [Seviteronel, (S)-Seviteronel] | 1170 nM | 2.7 | 430 nM | IC50 (human P450 17A1 [4]; This work (Fig. 3, Table 1), read-out: IC50, 17α-OH pregnenolone to DHEA (lyase)): 3400 nM; IC50 (human P450 17A1 [1]; ref (4) Rafferty et al. 2014): 690 nM; Ratio (17-hydroxylation/lyase) of IC50 (human P450 17A1 [2]; ref (4) Rafferty et al. 2014): 10; IC50 (human P450 17A1 [2]; ref (4) Rafferty et al. 2014): 69 nM
6 |  |  |  |  |  | CC(C)(C)NC(=O)[C@@H]1CN(Cc2cccnc2)CCN1C[C@@H](O)C[C@@H](Cc1ccccc1)C(=O)N[C@H]1c2ccccc2C[C@H]1O [indinavir] |  |  |  | Spectral interaction with P450 17A1 (human P450 17A1 [8]): did not show strong enough spectral interaction
7 |  |  |  |  |  | CCC(C)n1ncn(-c2ccc(N3CCN(c4ccc(OCC5COC(Cn6cncn6)(c6ccc(Cl)cc6Cl)O5)cc4)CC3)cc2)c1=O (stereo not shown) [itraconazole] |  |  |  | Spectral interaction with P450 17A1 (human P450 17A1 [8]): did not show strong enough spectral interaction
